Results taken from patent publication US9289411B2, “Anti-HCV agent” (NATIONAL UNIVERSITY CORPORATION OKAYAMA UNIVERSITY, priority 2011, dated 2016).
Where two headings read alike, the source gives them in different places.

Tests used:
[1] = test system: HCV-RNA replication in OR6 cells (HCV-O strain, HuH-7-derived); experiment: microbe, parasite or virus in culture; settings: for EC50: Hepatitis C virus, OR6, 72 h; for SI (CC50/EC50): OR6 cells
Source text: Assay systems using OR6 cells (HCV-O strain), 1B-4R cells (HCV-1B-4 strain), and AH1R cells (HCV-AH1R strain) as HuH-7 cell-derived full-length HCV-RNA-replicating cells, and ORL8 cells (HCV-O strain), ORL11 cells (HCV-O strain), 1B-4RL cells (HCV-1B-4 strain), and KAH5RL cells (HCV-KAH5 strain) as Li23 cell-derived full-length HCV-RNA-replicating cells were used for the quantitative analysis of anti-HCV activity and evaluation of a cytotoxic effect in the present invention. The three cell lines, i.e., the 1B-4R cells, the 1B-4RL cells, and the KAH5RL cells have been disclosed in WO 2010/026965 A1. The AH1R cells may be produced with reference to Mori K et al., BBRC, 371:104-109, 2008 and WO 2010/026965 A1. In addition, all the HCV strains belong to genotype 1b.
As necessary, an increase or decrease in expression level of an HCV protein (core protein) was examined by a Western blot method.
In the measurement of the renilla luciferase activity and the measurement by the WST-1 method, experiments were performed in three wells independent of each other, and their means and standard deviation were calculated.
OR6 cells, which had been cultured in general medium for subculture, were plated onto a 24-well plate (2×10^4 cells in 1 mL of medium for […] cell line per well) and cultured. After 24 hours, N-89 was added so as to achieve concentrations of 20 μM, a 2-fold dilution series from 20 μM (10, 5, 2.5, 1.3, 0.63, and 0.31 μM), and 0, or N-251 was added so as to achieve concentrations of 10 μM, a 2-fold dilution series from 10 μM (5, 2.5, 1.3, 0.63, 0.31, and 0.16 μM), and 0. The renilla luciferase activities were measured 72 hours after the culture. N-89 and N-251 were diluted with DMSO.
The anti-HCV activity of artemisinin was examined using OR6 cells and ORL8 cells and the EC50 values were calculated. An experimental scale and schedule are the same as those in Example 1.
Artemisinin was added so as to achieve concentrations of 100 μM, a 2-fold dilution series from 100 μM (50, 25, 13, 6.3, 3.1, and 1.6 μM), and 0. The luciferase activities were measured 72 hours after the culture.

[2] = test system: HCV-RNA replication in AH1R cells (HCV-AH1 strain, HuH-7-derived); experiment: microbe, parasite or virus in culture; format: cell-based, HCV genotype 1b; settings: for EC50: Hepatitis C virus, 72 hours, renilla luciferase activity
Source text: (§1) Assay systems using OR6 cells (HCV-O strain), 1B-4R cells (HCV-1B-4 strain), and AH1R cells (HCV-AH1R strain) as HuH-7 cell-derived full-length HCV-RNA-replicating cells, and ORL8 cells (HCV-O strain), ORL11 cells (HCV-O strain), 1B-4RL cells (HCV-1B-4 strain), and KAH5RL cells (HCV-KAH5 strain) as Li23 cell-derived full-length HCV-RNA-replicating cells were used for the quantitative analysis of anti-HCV activity and evaluation of a cytotoxic effect in the present invention. […] In addition, all the HCV strains belong to genotype 1b.
N-89 was added so as to achieve concentrations of 500 nM, a 2-fold dilution series from 500 nM (250, 125, 63, 31, 16, and 8 nM), and 0. The luciferase activities were measured 72 hours after the culture.
N-251 was added so as to achieve concentrations of 2 μM, a 2-fold dilution series from 2 μM (1, 0.5, 0.25, 0.13, 0.06, and 0.03 μM), and 0. The luciferase activities were measured 72 hours after the culture.

[3] = test system: HCV core protein in ORL8 cells; experiment: Western blot analysis of HCV core protein expression in ORL8 cells; format: cell-based, HCV genotype 1b; settings: 72 hours, 0.078-5 μM
Protocol: N-89 and N-251 were diluted with DMSO. Sampling was performed with 100 μL of 2×SDS buffer 72 hours after the culture. 10 μL of a sample were applied to SDS-PAGE electrophoresis and subjected to Western blot analysis using an anti-HCV core antibody and an anti-β-actin antibody according to a conventional method. It should be noted that for the detection of β-actin, a sample diluted 10-fold with 2×SDS buffer in advance was used.

[4] = test system: renilla luciferase; experiment: Influence on renilla luciferase activity in lysate of OR6 cells; format: biochemical; settings: OR6 cell lysate, concentrations of up to 20 μM
Protocol: Thus, N-89 or N-251 was added (5 μL) to a lysate (10 μL) of the ORL8 cells (1×10^5 cells, medium for Li23 cell line) so as to achieve final concentrations of 0, 5, 10, and 20 μM, and 50 μL of a substrate were further added thereto. Then, the luciferase activity was measured.
Also in OR6 cells (medium for HuH-7 cell line), the renilla luciferase activity was measured by the same technique as in Example 6.
An actual luciferase activity value (RL activity value) at 100% on the ordinate axis was 1.1×10^6 in both of N-89 and N-251.

[5] = test system: HCV-RNA replication in ORL8 cells; experiment: Combination effect with existing anti-HCV agents in ORL8 cells (luciferase activity vs expected additive curve); format: cell-based, HCV genotype 1b; settings: for effect in combination with CsA: CsA 0.2, 0.3, 0.4 μM; for effect in combination with CsA / effect in combination with FLV / effect in combination with RBV: compound 0.1, 0.2, 0.4 μM; for effect in combination with FLV: FLV 0.3, 1.0, 3.0 μM; for effect in combination with RBV: RBV 12.5, 25, 50 μM
Protocol: The effect of N-89 in combination with RBV was examined using ORL8 cells.
The drugs RBV and N-89 were added so that the concentrations of RBV were set to 0, 12.5, 25, and 50 μM and the concentrations of N-89 were set to 0, 0.1, 0.2, and 0.4 μM at each concentration of RBV. The luciferase activity was measured 72 hours after the culture.
The upper left panel of FIG. 19 and the upper right panel of FIG. 19 show the logarithmic and linear plots expressed by % of the measurement results, respectively.
The effect of N-251 in combination with RBV was examined using ORL8 cells.
The effect of N-89 in combination with IFN-α and RBV was examined using ORL8 cells.
The drugs N-89, IFN-α, and RBV were added so that the concentrations of the two drugs IFN-α and RBV were fixed as follows: both of IFN-α and RBV at 0; IFN-α at 1 IU/mL and RBV at 6.25 μM; IFN-α at 4 IU/mL and RBV at 12.5 μM; and IFN-α at 16 IU/mL and RBV at 25 μM, and the concentrations of N-89 were set to 0, 0.1, 0.2, and 0.4 μM in the respective combinations of IFN-α and RBV. The luciferase activity was measured 72 hours after the culture.
The luciferase activity was measured 72 hours after the culture.
The effect of N-89 in combination with FLV was examined using ORL8 cells.
The drugs FLV and N-89 were added so that the concentrations of FLV were set to 0.3, 1.0, and 3.0 μM and the concentrations of N-89 were set to 0, 0.1, 0.2, and 0.4 μM at each concentration of FLV. The luciferase activity was measured 72 hours after the culture.
The effect of N-251 in combination with FLV was examined using ORL8 cells.
The drugs FLV and N-251 were added so that the concentrations of FLV were set to 0.3, 1.0, and 3.0 μM and the concentrations of N-251 were set to 0, 0.1, 0.2, and 0.4 μM at each concentration of FLV. The luciferase activity was measured 72 hours after the culture.

[6] = Cytotoxic effect summarized over cells derived from various HCV strains (WST-1); format: cell-based; settings: human; seven full-length HCV-RNA-replicating cell lines; read-out: CC50 values, range over all cells
Source text: as §1

SMILES | EC50 [1] | SI (CC50/EC50) [1] | SI (CC50/EC50) [2] | EC50 [2] | SI (CC50/EC50) ([2]; listed as N89) | level of the HCV core protein (Western blot) [3] | inhibition on the renilla luciferase activity [4] | effect in combination with CsA ([5]; 72 hours) | effect in combination with FLV ([5]; 72 hours) | gaps between actually measured values and values expected as an additive effect ([5]; IFN-α 1 IU/mL and RBV 6.25 μM, N-89 0.1-0.4 μM) | effect in combination with IFN-α and RBV ([5]; IFN-α 4 IU/mL + RBV 12.5 μM and IFN-α 16 IU/mL + RBV 25 μM, N-89 0.1-0.4 μM, 72 hours) | effect in combination with RBV ([5]; 72 hours) | CC50 [6]
C1CCCCCC2(CCCCC1)OOCCCOO2 [N-89, 1,2,6,7-tetraoxaspiro[7,11]nonadecane] | 660 nM | 14 | about 20 | 25 nM | ~20 | reduced depending on the concentrations | did not show any inhibition | synergistic effect | synergistic effect | little gaps | synergistic effect | synergistic effect | 500 to 9300 nM
OCCCCCCC1COOC2(CCCCCCCCCCC2)OOC1 [N-251, 6-(1,2,6,7-tetraoxaspiro[7,11]nonadec-4-yl)] | 690 nM | 4.4 | 3.5 | 140 nM | – | reduced depending on the concentrations | did not show any inhibition | synergistic effect | synergistic effect | – | – | synergistic effect | 490 to 3800 nM
